# Experimental data reported in ChEMBL document CHEMBL1156399, “A quinolone alkaloid with antioxidant activity from the aleurone layer of anthocyanin-pigmented rice” (J Nat Prod, 2001).
# Test system: Radical scavenging activity
# Experiment: Antioxidant activity assessed as DPPH radical scavenging activity
# Type: functional
row,IC50 [µg/mL],Compound
1,36.4,COC(=O)c1cc(=O)[nH]c2ccc(O)cc12
2,21.8,O=C1O[C@H]([C@@H](O)CO)C(O)=C1O [ASCORBIC ACID]

row,Compound,IC50 [µg/mL]
1,COc1ccc(O)c(C(C)(C)C)c1.COc1ccc(O)cc1C(C)(C)C [BUTYLATED HYDROXYANISOLE],20.6
